These results are taken from patent publication USRE41149E1, “Optically active pyridonecarboxylic acid derivatives” (Daiichi Sankyo Company, Limited, priority 1988, dated 2010).

The test system of one series is Ps. aeruginosa, 32121. Description: Antimicrobial activity (MIC), standard method of Nippon Kagakuryoho Gakkai. Type of series: cell-based. Particulars: for MIC: Pseudomonas aeruginosa, 32121, Ps. aeruginosa. Here is the method: (§1) Antimicrobial activity of the optically active compounds prepared in Examples was evaluated in accordance with the standard method specified by Nippon […], and results obtained are shown in Table 1 which precedes the claims herein in terms of minimum inhibitory concentration (MIC: […]).

For the next series, the system named is E. coli., NIHJ. Described as above. The series is classed as cell-based. Conditions: for MIC: Escherichia coli. The protocol:
as §1

For the next series, the system named is Ser. marcescens, 10100. Described as above. The series is classed as cell-based. Conditions: for MIC: Serratia marcescens, 10100, Ser. marcescens. Here is the method: as §1
The test system of a further series is S. epidermidis, 56500. The description is as above. The series is classed as cell-based. Particulars: for MIC: Staphylococcus epidermidis, 56500, S. epidermidis. Here is the method:
as §1

A further series deals with S. aureus, 209 P. Described as above. The series is classed as cell-based. Conditions: for MIC: Staphylococcus aureus. Here is the method:
as §1

The next series concerns Pr. vulgaris, 08601. The series is described as above. The series is classed as cell-based. Conditions: for MIC: Proteus vulgaris. The protocol: as §1
A further series has as its system Ps. aeruginosa, 32104. The series is described as above. The series is classed as cell-based. Conditions: for MIC: Pseudomonas aeruginosa, 32104, Ps. aeruginosa. The protocol: as §1
The subject of series [1] is Str. faecalis, ATCC 19433. Described as above. Type of series: cell-based. Conditions: for MIC: Enterococcus faecalis, ATCC19433, Str. faecalis. Here is the method:
as §1

Values after ≈ are worked out from the molar mass of the structure shown. Structures can show the parent of a compound that is named as a salt.

The melting point is the temperature, or range, at which the solid turns liquid. What is called MIC is the lowest concentration found to suppress growth. A low value points to inhibition by little substance. For `C[C@H](N)[C@@H]1CCN(c2c(F)cc3c(=O)c(C(=O)O)cn(C4CC4F)c3c2Cl)C1` (single isomer, unassigned; (-)) [Compound 34b], the melting point is 204 to 207 °C. In the series on Ps. aeruginosa, 32121, this compound showed an MIC of less than 0.1 µg/mL. For the same compound, in the series on E. coli., NIHJ, the MIC was less than 0.1 µg/mL. This compound also had an MIC in the series with Ser. marcescens, 10100 of less than 0.1 µg/mL. Also, in the series on S. epidermidis, 56500, the MIC is less than 0.1 µg/mL. This compound also registered an MIC with S. aureus, 209 P of less than 0.1 µg/mL. In addition, in the series with Pr. vulgaris, 08601, the MIC was less than 0.1 µg/mL. The compound further returned an MIC with Ps. aeruginosa, 32104 of 0.1 µg/mL (≈ 0.243 µM). This compound also showed an MIC in series [1] of less than 0.1 µg/mL.
For the compound `CC1(C)CN(c2c(F)cc3c(=O)c(C(=O)O)cn([C@@H]4C[C@@H]4F)c3c2Cl)CC1N` (single isomer, unassigned; (-)) [Compound 59b], the melting point lay within 118 to 121 °C. In the series with Ps. aeruginosa, 32121, this compound registered an MIC of less than 0.1 µg/mL. The same compound yielded an MIC in the series with E. coli., NIHJ of less than 0.1 µg/mL. The same compound displayed an MIC with Ser. marcescens, 10100 of less than 0.1 µg/mL. Further, the MIC in the series with S. epidermidis, 56500 is less than 0.1 µg/mL. Also, in the series with S. aureus, 209 P, the minimum inhibitory concentration (MIC) is less than 0.1 µg/mL. Moreover, the MIC with Pr. vulgaris, 08601 is less than 0.1 µg/mL. In the series with Ps. aeruginosa, 32104, this compound yielded an MIC of 0.2 µg/mL (≈ 0.486 µM). Also, the MIC in series [1] worked out at 0.1 µg/mL (≈ 0.243 µM).
Turning to `Cc1c(N2CC[C@@H]([C@H](C)N)C2)c(F)cc2c(=O)c(C(=O)O)cn(C3CC3F)c12` (single isomer, unassigned; (-)) (as salt: hydrochloride) [Compound 54b], the melting point is 149 to 153 °C.
As to `C[C@H]1C[C@H](N)CN1c1nc2c(cc1F)c(=O)c(C(=O)O)cn2[C@@H]1C[C@@H]1F` (relative stereo) [Compound 31b, 7-[4-(S)-Amino-2-(S)-methyl-1-pyrrolidinyl]-6-fluoro-1-(1,2-cis-2-fluoro-1-cyclopropyl)-4-oxo-1,4-dihydro-1,8-naphthyridine-3-carboxylic acid], the “Antimicrobial activity (MIC)” value was 0.10 µg/mL with Ps. aeruginosa, 32121 (Ps. aeruginosa); less than 0.1 µg/mL in the series with E. coli., NIHJ; 0.10 µg/mL in the series on Ser. marcescens, 10100 (Ser. marcescens); 0.20 µg/mL in the series on S. epidermidis, 56500 (S. epidermidis); less than 0.1 µg/mL in the series with S. aureus, 209 P; less than 0.1 µg/mL in the series with Pr. vulgaris, 08601. Also, the “Antimicrobial activity (MIC)” value is 0.20 µg/mL in the series on Ps. aeruginosa, 32104 (Ps. aeruginosa) and 0.39 µg/mL in series [1] (Str. faecalis).
